The target of experiment [1] is human RORγt ligand binding domain (RORγt LBD) (Homo sapiens (Human), UniProt P51449). Description: RORγt ThermoFluor® assay (thermal shift binding). As to conditions: read-out: ThermoFluor® Assay, Kd. The method, boiled down:
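Binding was inferred from thermal stabilisation (ΔTm) of the E. coli-expressed RORγt LBD (0.065 mg/mL), monitored by 1,8-ANS (60 μM) emission at 500 nm during a 1 °C/min ramp. Buffer was Hepes 100 mM pH 7.0 with NaCl, GSH and Tween-20.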
For orientation: Differential scanning fluorimetry follows unfolding on heating by fluorescence.

The test system of experiment [2] is IL-17 production by CD4 T cells. Description: Human Th17 assay. Type of experiment: cell-based. The source says: The human Th17 assay tests the effect of RORγt modulatory compounds on IL-17 production by CD4 T cells under conditions which favor Th17 differentiation. Total CD4^+ T cells were isolated from the peripheral blood mononuclear cells (PBMC) of healthy donors using a CD4^+ T cell isolation kit II, following the manufacturer's instructions (Miltenyi Biotec). Cells were resuspended in a medium of RPMI-1640 supplemented with 10% fetal bovine serum, penicillin, streptomycin, glutamate, and β-mercaptoethanol and were added to 96-well plates at 1.5×10^5 per 100 μL per well. 50 μL of compound at titrated concentrations in DMSO were added into each well at final DMSO concentration at 0.2%. Cells were incubated for 1 hour, then 50 μL of Th17 cell differentiation medium was added to each well. The final concentrations of antibodies and cytokines (R&D Systems) in differentiation medium were: 3×10^6/mL anti-CD3/CD28 beads (prepared using human T cell activation/expansion kit, Miltenyi Biotec), 10 μg/mL anti-IL4, 10 μg/mL anti-IFNγ, 10 ng/mL IL1β, 10 ng/mL IL23, 50 ng/mL IL6, 3 ng/mL TGFβ and 20 U/mL IL2. Cells were cultured at 37° C. and 5% CO2 for 3 days. Supernatants were collected and the accumulated IL-17 in culture was measured by using MULTI-SPOT® Cytokine Plate following manufacture's instruction (Meso Scale Discovery). The plate was read using Sector Imager 6000, and IL-17 concentration was extrapolated from the standard curve. The IC50s were determined by GraphPad.

Setting [3] is: read-out: Human Th17 Assay, IC50.
The mark [4] stands for this setting: read-out: Human Th17 Assay, IC50 (μM).

Read-outs that look alike come from different tables or passages of the source.

Chain of human RORγt ligand binding domain (RORγt LBD) (P51449 other isoform, or with tags, fused parts or gaps): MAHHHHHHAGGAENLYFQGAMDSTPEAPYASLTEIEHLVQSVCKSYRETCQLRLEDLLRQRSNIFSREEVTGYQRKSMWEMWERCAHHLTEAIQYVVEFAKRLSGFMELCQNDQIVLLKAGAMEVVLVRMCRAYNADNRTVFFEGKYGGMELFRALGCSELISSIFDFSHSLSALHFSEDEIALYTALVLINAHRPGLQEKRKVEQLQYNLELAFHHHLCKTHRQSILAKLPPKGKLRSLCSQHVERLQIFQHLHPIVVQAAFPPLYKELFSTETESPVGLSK

In the case of `CC[C@H](Nc1cc(C(F)(F)F)c(-c2sc(C(=O)NCC(C)(C)O)nc2C(=O)N2CCC[C@@H]2C)cn1)C1CC1` (relative stereo) [Example 128, 5-(6-(((S*)-1-Cyclopropylpropyl)amino)-4-(trifluoromethyl)pyridin-3-yl)-N-(2-hydroxy-2-methylpropyl)-4-((S)-2-methylpyrrolidine-1-carbonyl)thiazole-2-carboxamide], in experiment [1], the equilibrium dissociation constant (Kd) amounted to 2.6 nM. For the same molecule, the IC50 in experiment [2] (setting [3]) was found to be 0.018 µM.
Turning to `C[C@H]1CC(F)(F)CN1C(=O)c1nc(C(=O)NCC(C)(C)O)sc1-c1cnc(NC2(C(F)(F)F)CCC2)cc1C(F)F` [Example 124, (S)-4-(4,4-Difluoro-2-methylpyrrolidine-1-carbonyl)-5-(4-(difluoromethyl)-6-((1-(trifluoromethyl)cyclobutyl)amino)pyridin-3-yl)-N-(2-hydroxy-2-methylpropyl)thiazole-2-carboxamide], the Kd in experiment [1] is 0.52 nM. Also, in experiment [2] (setting [3]), the IC50 is 0.0067 µM.
As to `C[C@H](Nc1cc(C(F)F)c(-c2sc(C(=O)NCC(C)(C)O)nc2C(=O)N2CCCC[C@@H]2C)cn1)C(F)(F)F` [Example 144], the equilibrium dissociation constant (Kd) in experiment [1] amounted to 1.5 nM. Moreover, the IC50 in experiment [2] (setting [3]) amounted to 0.013 µM.
In the case of `CC[C@H](Nc1cc(C(F)(F)F)c(-c2sc(C(=O)NCC(C)(C)O)nc2C(=O)N2CCC[C@@H]2C)cn1)C(F)(F)F` [Example 111, N-(2-Hydroxy-2-methylpropyl)-4-((S)-2-methylpyrrolidine-1-carbonyl)-5-(6-(((S)-1,1,1-trifluorobutan-2-yl)amino)-4-(trifluoromethyl)pyridin-3-yl)thiazole-2-carboxamide], the dissociation constant Kd in experiment [1] came to 1.8 nM. The IC50 in experiment [2] (setting [3]) turned out to be 0.017 µM.
Take `CC[C@H](Nc1cc(C(F)F)c(-c2sc(C(=O)NCC(C)(C)O)nc2C(=O)N2CC(F)(F)C[C@@H]2C)cn1)C(F)(F)F` [Example 90, 4-((S)-4,4-Difluoro-2-methylpyrrolidine-1-carbonyl)-5-(4-(difluoromethyl)-6-(((S)-1,1,1-trifluorobutan-2-yl)amino)pyridin-3-yl)-N-(2-hydroxy-2-methylpropyl)thiazole-2-carboxamide]: the Kd in experiment [1] is 1.4 nM. Moreover, the concentration for half-maximal inhibition (IC50) in experiment [2] (setting [3]) was 0.076 µM.
Take `C[C@H](NC(=O)c1nc(C(=O)N2CCC[C@@H]2C)c(-c2cnc(NC(C)(C)C)cc2C(F)(F)F)s1)C(C)(C)O` [Example 336, 5-[6-(tert-Butylamino)-4-(trifluoromethyl)-3-pyridyl]-N-[(1S)-2-hydroxy-1,2-dimethyl-propyl]-4-[(2S)-2-methylpyrrolidine-1-carbonyl]thiazole-2-carboxamide]: the Kd in experiment [1] was found to be 1.1 nM. The half-maximal inhibitory concentration (IC50) in experiment [2] (setting [3]) was determined as 0.011 µM.
Take `C[C@H]1CCCCN1C(=O)c1nc(C(=O)NCC(C)(C)O)sc1-c1cnc(NC2CCCC2)cc1C(F)(F)F` [Example 27, (S)-5-(6-(Cyclopentylamino)-4-(trifluoromethyl)pyridin-3-yl)-N-(2-hydroxy-2-methylpropyl)-4-(2-methylpiperidine-1-carbonyl)thiazole-2-carboxamide]: the dissociation constant (Kd) in experiment [1] was 0.52 nM. In addition, in experiment [2] (setting [3]), the IC50 turned out to be 0.016 µM.
For `C[C@H]1CCCN1C(=O)c1nc(C(=O)NCc2n[nH]c(=O)o2)sc1-c1cnc(NC(C)(C)C)cc1C(F)(F)F` [Example 305, (S)-5-(6-(tert-Butylamino)-4-(trifluoromethyl)pyridin-3-yl)-4-(2-methylpyrrolidine-1-carbonyl)-N-((5-oxo-4,5-dihydro-1,3,4-oxadiazol-2-yl)methyl)thiazole-2-carboxamide] the same measures were 4.9 nM and 0.089 µM.
Consider `C[C@H](Nc1cc(C(F)(F)F)c(-c2sc(C(=O)NCC(C)(C)O)nc2C(=O)N2CCC[C@@H]2C)cn1)C(F)(F)F` [Example 78, N-(2-Hydroxy-2-methylpropyl)-4-((S)-2-methylpyrrolidine-1-carbonyl)-5-(4-(trifluoromethyl)-6-(((S)-1,1,1-trifluoropropan-2-yl)amino)pyridin-3-yl)thiazole-2-carboxamide], for which the equilibrium dissociation constant (Kd) in experiment [1] worked out at 3.2 nM. In addition, the IC50 in experiment [2] (setting [3]) was 0.014 µM.
`C[C@H](Nc1cc(C(F)(F)F)c(-c2sc(C(=O)NCC(C)(C)O)nc2C(=O)N2CC(F)(F)C[C@@H]2C)cn1)C1CC1` [Example 142, 5-(6-(((S)-1-Cyclopropylethyl)amino)-4-(trifluormethyl)pyridin-3-yl)-4-((S)-4,4-difluoro-2-methylpyrrolidine-1-carbonyl)-N-(2-hydroxy-2-methylpropyl)thiazole-2-carboxamide]: in experiment [1], the Kd was 1.4 nM. Further, the 50% inhibitory concentration (IC50) in experiment [2] (setting [3]) was determined as 0.019 µM.
For `C[C@H]1CC(F)(F)CN1C(=O)c1nc(C(=O)NCC(C)(C)O)sc1-c1cnc(NCC(C)(C)C)cc1C(F)F` [Example 115, (S)-4-(4,4-Difluoro-2-methylpyrrolidine-1-carbonyl)-5-(4-(difluoromethyl)-6-(neopentylamino)pyridin-3-yl)-N-(2-hydroxy-2-methylpropyl)thiazole-2-carboxamide] the same measures were 1.9 nM and 0.022 µM.
Consider `CC(C)(O)CNC(=O)c1nc(C(=O)N2C3CCC2CC3)c(-c2cnc(NCC(C)(C)C(F)(F)F)cc2C(F)(F)F)s1` [Example 122, 4-((1s,4s)-7-Azabicyclo[2.2.1]heptane-7-carbonyl)-N-(2-hydroxy-2-methylpropyl)-5-(6-((3,3,3-trifluoro-2,2-dimethylpropyl)amino)-4-(trifluoromethyl)pyridin-3-yl)thiazole-2-carboxamide], for which, in experiment [1], the Kd was 1.7 nM. The IC50 in experiment [2] (setting [4]) is 0.02 µM.
On to `C[C@H]1CCCN1C(=O)c1nc(C(=O)NC[C@@H](O)C(C)(C)O)sc1-c1cnc(NC(C)(C)C)cc1C(F)(F)F` (single isomer, unassigned) [Example 243, 5-(6-(tert-Butylamino)-4-(trifluoromethyl)pyridin-3-yl)-N—((R*)-2,3-dihydroxy-3-methylbutyl)-4-((S)-2-methylpyrrolidine-1-carbonyl)thiazole-2-carboxamide], for which the equilibrium dissociation constant (Kd) in experiment [1] worked out at 7.3 nM. Further, the IC50 in experiment [2] (setting [3]) came out at 0.063 µM.
On to `C[C@H](Nc1cc(C(F)(F)F)c(-c2sc(C(=O)NCC(C)(C)O)nc2C(=O)N2CCCC[C@@H]2C)cn1)C(F)(F)F` [Example 47, N-(2-Hydroxy-2-methylpropyl)-4-((S)-2-methylpiperidine-1-carbonyl)-5-(4-(trifluoromethyl)-6-(((S)-1,1,1-trifluoropropan-2-yl)amino)pyridin-3-yl)thiazole-2-carboxamide], for which the Kd in experiment [1] was 0.5 nM. In experiment [2] (setting [3]), the half-inhibitory concentration (IC50) came out at 0.0098 µM.
Regarding `C[C@H](NC(=O)c1nc(C(=O)N2CCC[C@@H]2C)c(-c2cnc(N[C@@H](C)C(F)(F)F)cc2C(F)F)s1)C(C)(C)O` [Example 199, 5-(4-(Difluoromethyl)-6-(((S)-1,1,1-trifluoropropan-2-yl)amino)pyridine-3-yl)-N—((S)-3-hydroxy-3-methylburan-2-yl)-4-((S)-2-methylpyrrolidine-1-carbonyl)thiazole-2-carboxamide], the Kd in experiment [1] turned out to be 5.4 nM. Further, the IC50 in experiment [2] (setting [3]) was 0.1 µM.
In the case of `C[C@H](NC(=O)c1nc(C(=O)N2CC(F)(F)C[C@@H]2C)c(-c2cnc(N[C@@H](C)C(F)(F)F)cc2C(F)F)s1)C(C)(C)O` [Example 197], the equilibrium dissociation constant (Kd) in experiment [1] amounted to 1.7 nM. Besides, the IC50 in experiment [2] (setting [3]) was 0.03 µM.
Turning to `C[C@H](Nc1cc(C(F)(F)F)c(-c2sc(C(=O)NCC(C)(C)O)nc2C(=O)N2CCC[C@@H]2C)cn1)C1CC1` [Example 40, 5-(6-(((S)-1-Cyclopropylethyl)amino)-4-(trifluoromethyl)pyridin-3-yl)-N-(2-hydroxy-2-methylpropyl)-4-((S)-2-methylpyrrolidine-1-carbonyl)thiazole-2-carboxamide], the Kd in experiment [1] was 2.8 nM. The half-maximal inhibitory concentration (IC50) in experiment [2] (setting [3]) turned out to be 0.056 µM.
Turning to `O=C(N[C@H]1C[C@H](O)C1)c1nc(C(=O)N2C3CCC2CC3)c(-c2cnc(N[C@@H](C3CC3)C(F)(F)F)cc2C(F)F)s1` [Example 318, 4-((1s,4s)-7-Azabicyclo[2.2.1]heptane-7-carbonyl)-5-(6-(((S)-1-cyclopropyl-2,2,2-trifluoroethyl)amino)-4-(difluoromethyl)pyridin-3-yl)-N-((1r,3S)-3-hydroxycyclobutyl)thiazole-2-carboxamide], in experiment [1], the dissociation constant Kd came to 8.1 nM. Moreover, the half-inhibitory concentration (IC50) in experiment [2] (setting [3]) was found to be 0.017 µM.
With `CC(C)(O)CNC(=O)c1nc(C(=O)N2C3CCC2CC3)c(-c2cnc(NC3(C)CCC3)cc2C(F)(F)F)s1` [Example 140, 4-((1s,4s)-7-Azabicyclo[2.2.1]heptane-7-carbonyl)-N-(2-hydroxy-2-methylpropyl)-5-(6-((1-methylcyclobutyl)amino)-4-(trifluoromethyl)pyridin-3-yl)thiazole-2-carboxamide], the Kd in experiment [1] came to 1.7 nM. In addition, the IC50 in experiment [2] (setting [4]) turned out to be 0.011 µM.

As usually defined, the Kd is the free concentration of one partner at which half of the binding sites on the other are occupied at equilibrium, for simple one-to-one binding. A word on the IC50: it is the concentration at which inhibition is half-maximal.

Values taken from patent publication US10975068B2, “6-aminopyridin-3-yl thiazoles as modulators of RORγT” (Janssen Pharmaceutica NV, priority 2016, dated 2021).
